Counter-ions that a name gives are not always drawn.
Target: T1, human A3AR (Homo sapiens, UniProt P0DMS8)
T1 construct: expressed in transfected cells
T1 sequence (P0DMS8 1-318): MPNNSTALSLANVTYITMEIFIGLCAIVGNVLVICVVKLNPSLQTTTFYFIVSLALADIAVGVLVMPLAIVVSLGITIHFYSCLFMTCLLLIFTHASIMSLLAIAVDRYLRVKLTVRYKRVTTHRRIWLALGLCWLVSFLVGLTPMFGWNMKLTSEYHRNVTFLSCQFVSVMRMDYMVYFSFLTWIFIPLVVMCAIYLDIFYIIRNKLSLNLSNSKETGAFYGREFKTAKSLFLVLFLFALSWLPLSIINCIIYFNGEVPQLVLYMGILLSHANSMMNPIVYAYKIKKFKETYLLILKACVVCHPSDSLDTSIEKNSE
Assay: LOPAC library primary screen: single concentration (10 μM) inhibition of 25 nM CA200645 binding, PHERAstar FS
Conditions: not given

Row | SMILES | % 25 nM CA200645 binding [%] | % Total CA200645 binding [%]
1 | Cl.NO [Hydroxylamine hydrochloride] | 99.3 ± 3.4 | –
2 | Nc1c2c(nc3ccccc13)CCCC2O.O=C(O)/C=C\C(=O)O (centres unmarked) [Hydroxytacrine maleate] | 108.6 ± 13.0 | –
3 | NC(=O)NO [Hydroxyurea] | 107.6 ± 23.3 | –
4 | NCCS(=O)O [Hypotaurine] | 94.6 ± 26.1 | –
5 | COc1cc(/C=C(\C#N)C(=O)c2ccc(O)c(O)c2)cc(I)c1O [I-OMe-Tyrphostin AG 538] | 71.3 ± 34.4 | –
6 | CNC(=O)[C@H]1O[C@@H](n2cnc3c(NCc4cccc(I)c4)ncnc32)[C@H](O)[C@@H]1O [IB-MECA, reference compound] | 36.3 ± 4.0 | 36.3 ± 4.0
7 | COc1cc(OC)c(C=C2C(O)=Nc3ccccc32)c(OC)c1 [IC 261] | 88.8 ± 5.2 | –
8 | CCCn1c(=O)c(C)cn2nc(N)nc12 [ICI 63,137] | 93.4 ± 5.4 | –
9 | CN(C(=O)Cc1ccc(Cl)c(Cl)c1)C(CN1CCCC1)c1cccc(OCC(=O)O)c1.Cl (centres unmarked) [ICI 204,448 hydrochloride] | 104.6 ± 7.5 | –
10 | Cl.Fc1ccc(CN(C2=NCCN2)c2c(Cl)cccc2Cl)cc1 [IMID-4F hydrochloride] | 97.3 ± 5.7 | –
11 | COc1ccc(/C=C2\COc3ccc(C)cc3C2=O)cc1O [IMS2186] | 95.7 ± 10.2 | –
12 | Oc1ccc2ccccc2c1SSc1c(O)ccc2ccccc12 [IPA-3] | 63.1 ± 15.2 | –
13 | O=C(Nc1nc2ccccc2n1CCN1CCOCC1)c1cccc([N+](=O)[O-])c1 [IRAK-1/4 Inhibitor I] | 61.3 ± 9.4 | –
14 | CCCCCN(C)CCC(O)(P(=O)([O-])O)P(=O)(O)O.[Na+] [Ibandronate sodium] | 95.5 ± 10.4 | –
15 | CC(C)C(=O)c1c(C(C)C)nn2ccccc12 [Ibudilast] | 82.8 ± 12.0 | –
16 | CC(=O)[C@]1(O)Cc2c(O)c3c(c(O)c2[C@@H](O[C@H]2C[C@H](N)[C@H](O)[C@H](C)O2)C1)C(=O)c1ccccc1C3=O [Idarubicin] | 95.1 ± 1.7 | –
17 | CC(C(O)c1ccc(O)cc1)N1CCC(Cc2ccccc2)CC1.CC(C(O)c1ccc(O)cc1)N1CCC(Cc2ccccc2)CC1.O=C(O)C(O)C(O)C(=O)O (centres unmarked) [Ifenprodil tartrate] | 95.4 ± 10.6 | –
18 | O=C1CCC(c2ccc(-n3ccnc3)cc2)=NN1 [Imazodan] | 97.4 ± 12.7 | –
19 | N=C(N)SCCc1cnc[nH]1 [Imetit dihydrobromide] | 99.9 ± 2.2 | –
20 | Cl.O=C(O)Cc1c[nH]cn1 [Imidazole-4-acetic acid hydrochloride] | 99.3 ± 14.9 | –

Row | SMILES | % 25 nM CA200645 binding [%] | % Total CA200645 binding [%]
21 | C[C@@H](O)[C@H]1C(=O)N2C(C(=O)O)=C(SCCN=CN)C[C@H]12 [Imipenem monohydrate] | 96.8 ± 2.2 | –
22 | CN(C)CCCN1c2ccccc2CCc2ccccc21 [Imipramine hydrochloride] | 99.2 ± 4.6 | –
23 | CC(C)=CCOc1c2occc2cc2ccc(=O)oc12 [Imperatorin] | 47.6 ± 2.3 | –
24 | CN[C@@H]1C[C@@H](c2ccc(Cl)c(Cl)c2)c2ccccc21 [Indatraline hydrochloride] | 103.0 ± 8.6 | –
25 | COc1ccc2c(c1)c(CC(=O)O)c(C)n2C(=O)c1ccc(Cl)cc1 [Indomethacin] | 72.9 ± 18.3 | –
26 | NC(=O)CI [Iodoacetamide] | 101.9 ± 8.2 | –
27 | CC(C)NC(C)Cc1ccc(I)cc1 (centres unmarked) [Iofetamine hydrochloride] | 100.8 ± 7.1 | –
28 | CC(C)[N+]1(C)[C@@H]2CC[C@H]1C[C@@H](OC(=O)C(CO)c1ccccc1)C2 (some centres unmarked) [Ipratropium bromide] | 106.7 ± 26.2 | –
29 | CC(C)NNC(=O)c1ccncc1.O=P(O)(O)O [Iproniazid phosphate] | 103.0 ± 5.6 | –
30 | O=C(/C=C/c1ccc(O)cc1)c1ccc(O)cc1O [Isoliquiritigenin] | 88.0 ± 9.1 | –
31 | O=C(O)C1CCNCC1 [Isonipecotic acid] | 88.5 ± 19.5 | –
32 | CCC(NC(C)C)C(O)c1ccc(O)c(O)c1.CS(=O)(=O)O (centres unmarked) [Isotharine mesylate] | 102.1 ± 6.6 | –
33 | Nc1nc2[nH]c(=O)cnc2c(=O)[nH]1 [Isoxanthopterin] | 94.7 ± 15.0 | –
34 | COc1cc(SC)ccc1C(=O)N1CCC(Cc2ccccc2)CC1 [JX401] | 84.6 ± 8.9 | –
35 | S=c1[nH]c(-c2ccccc2)cn1-c1ccccc1 [KRM-III] | 70.4 ± 12.2 | –
36 | O=C(c1ccc(F)cc1)C1CCN(CCn2c(=O)[nH]c3ccccc3c2=O)CC1 [Ketanserin tartrate] | 100.1 ± 15.2 | –
37 | CC(=O)N1CCN(c2ccc(OCC3COC(Cn4ccnc4)(c4ccc(Cl)cc4Cl)O3)cc2)CC1 (centres unmarked) [Ketoconazole] | 98.9 ± 9.0 | –
38 | NC(CO)(CO)CO.O=C(c1ccccc1)c1ccc2n1CCC2C(=O)O (centres unmarked) [Ketorolac tris salt] | 93.7 ± 13.0 | –
39 | CN1CCC(=C2c3ccccc3CC(=O)c3sccc32)CC1 [Ketotifen fumarate] | 93.8 ± 4.0 | –
40 | NC[C@H](O)c1ccc(O)c(O)c1.O=C(O)C(O)C(O)C(=O)O [L(-)-Norepinephrine bitartrate] | 97.7 ± 6.2 | –

Row | SMILES | % 25 nM CA200645 binding [%] | % Total CA200645 binding [%]
41 | N[C@@H](CCCC(=O)O)C(=O)O [L-2-aminoadipic acid] | 101.5 ± 9.7 | –
42 | N[C@@H](Cc1ccc(O)c(O)c1)C(=O)O [L-3,4-Dihydroxyphenylalanine] | 99.1 ± 9.5 | –
43 | Cl.c1ccc(CN2CCC3(CCCc4ccccc43)CC2)cc1 [L-687,384 hydrochloride] | 108.6 ± 4.6 | –
44 | Ic1ccccc1CNC1C2CCN(CC2)C1C(c1ccccc1)c1ccccc1.O=C(O)C(=O)O [L-703,606 oxalate salt hydrate] | 93.3 ± 4.4 | –
45 | Cl.Clc1ccc(N2CCN(Cc3c[nH]c4ncccc34)CC2)cc1 [L-745,870 hydrochloride] | 105.7 ± 4.1 | –
46 | N=C(N)NCCC[C@H](N)C(=O)O [L-Arginine] | 97.1 ± 5.5 | –
47 | N[C@@H](CC(=O)O)C(=O)O [L-Aspartic acid] | 99.3 ± 3.7 | –
48 | N[C@H](C(=O)O)[C@H](Cc1ccccc1)C(=O)O [L-Beta-threo-benzyl-aspartate] | 95.9 ± 9.2 | –
49 | CCCCS(=N)(=O)CC[C@H](N)C(=O)O (stereo partly drawn) [L-Buthionine-sulfoximine] | 98.1 ± 5.3 | –
50 | NC(N)=NOCC[C@H](N)C(=O)O [L-Canavanine] | 101.1 ± 4.7 | –
51 | N[C@H]1CON=C1O [L-Cycloserine] | 98.0 ± 1.4 | –
52 | N[C@@H](CS(=O)O)C(=O)O [L-Cysteinesulfinic Acid] | 83.6 ± 21.3 | –
53 | Cl.N[C@@H](CCC(=O)O)C(=O)O [L-Glutamic acid hydrochloride] | 113.0 ± 19.3 | –
54 | O=C(O)CCC(C(=O)O)N1C(=O)c2ccccc2C1=O [L-Glutamic acid, N-phthaloyl-] | 89.4 ± 32.8 | –
55 | Cl.N[C@@H](Cc1cnc[nH]1)C(=O)O [L-Histidine hydrochloride] | 100.4 ± 6.4 | –
56 | N[C@@H](Cn1ccc(=O)c(O)c1)C(=O)O [L-Mimosine from Koa hoale seeds] | 106.5 ± 13.7 | –
57 | CC(=N)NCCCC[C@H](N)C(=O)O.Cl [L-N6-(1-Iminoethyl)lysine hydrochloride] | 96.4 ± 1.7 | –
58 | C=CC[C@H](N)C(=O)O [L-allylglycine] | 98.5 ± 1.7 | –
59 | C[C@](N)(Cc1ccc(O)c(O)c1)C(=O)O [L-alpha-Methyl DOPA] | 92.6 ± 21.6 | –

Same assay, conditions: % of control wells (1% DMSO and 25 nM CA200645); compounds at 10 µM; […]; mean ± SD, three experiments in duplicate

Row | SMILES | % 25 nM CA200645 binding [%]
60 | O=C1Nc2ccccc2/C1=C1/Nc2ccccc2/C1=N\O [Indirubin-3'-oxime] | 50.6 ± 24.7

Same assay, conditions: % of control wells (1% DMSO and 25 nM CA200645); compounds at 10 µM; whole live cells expressing the A3AR; mean ± SD, three experiments in duplicate

Row | SMILES | % 25 nM CA200645 binding [%]
61 | O=C1NC(c2cccc([N+](=O)[O-])c2)=CCN1c1ccccc1O [Icilin] | 88.5 ± 5.8
62 | CCn1ccnc1CC1COc2ccccc2O1 (centres unmarked) [Imiloxan hydrochloride] | 97.3 ± 10.2
63 | O=C(O)C1=CCNCC1 [Isoguvacine hydrochloride] | 87.4 ± 16.5
64 | O=C(O)c1cc(=O)c2ccccc2[nH]1 [Kynurenic acid] | 83.5 ± 10.7
65 | NC(=O)CC[C@H](N)C(=O)O [L-Glutamine] | 99.9 ± 14.1
66 | N[C@@H](Cc1c[nH]c2ccccc12)C(=O)O [L-Tryptophan] | 100.0 ± 3.7

Same assay, conditions: compounds tested at 10 µM; % of control wells (1% DMSO and 25 nM CA200645); whole live cells expressing the A3AR; mean ± SD, three experiments in duplicate

Row | SMILES | % 25 nM CA200645 binding [%]
67 | c1ccc2c(c1)OCC(C1=NCCN1)O2 (centres unmarked) [Idazoxan hydrochloride] | 112.7 ± 7.0

From publication PMC5733478, “A Non-imaging High Throughput Approach to Chemical Library Screening at the Unmodified Adenosine-A3 Receptor in Living Cells” (Frontiers in Pharmacology, 2017)
